Drawing on PubChem BioAssay AID330 (DTP/NCI, 2004), this text covers T/C for 16 compounds.

For this experiment, the system named is P388 leukemia ip, CD2F1 mice, survival T/C. As to the kind of experiment: NCI In Vivo Anticancer Drug Screen. Data for tumor model P388 Leukemia (intraperitoneal) in CD2F1 (CDF1) mice. To be noted: endpoint: median survival time, higher = longer survival. In outline: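 Mice carrying the transplanted tumor received test compound or vehicle. Survival was recorded in each group, and the value is the treated-group measurement divided by that of the vehicle-treated control group.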

[1] abbreviates: dose: 7.5 mg/kg/injection, schedule: Q01DX005 (ip), vehicle: saline.
[2] abbreviates: dose: 15.0 mg/kg/injection, schedule: Q01DX005 (ip), vehicle: saline with Tween-80.
Where [3] appears, read: dose: 15.0 mg/kg/injection, schedule: Q01DX005 (ip), vehicle: saline.
[4] abbreviates: dose: 240.0 mg/kg/injection, schedule: Q01DX005 (ip), vehicle: saline with Tween-80.
Setting [5] is: dose: 12.5 mg/kg/injection, schedule: Q01DX005 (ip), vehicle: saline with Tween-80.
The mark [6] stands for this setting: dose: 25.0 mg/kg/injection, schedule: Q01DX005 (ip), vehicle: saline with Tween-80.
Setting [7] is: dose: 50.0 mg/kg/injection, schedule: Q01DX005 (ip), vehicle: saline with Tween-80.
The mark [8] stands for this setting: dose: 100.0 mg/kg/injection, schedule: Q01DX005 (ip), vehicle: saline with Tween-80.

Several values for one entry are separate records, joined by “and”; a condition that tells them apart may be missing. Identical values can stand only once. Toxic doses and inconclusive results are not listed.

Take `CNC(=O)c1ccccc1Sc1ccccc1C(=O)NC`: the T/C is, setting by setting: (dose: 100.0 mg/kg/injection, schedule: Q01DX001 (ip), vehicle: other) 100 % of control; (dose: 200.0 mg/kg/injection, schedule: Q01DX001 (ip), vehicle: other) 101 % of control; (dose: 400.0 mg/kg/injection, schedule: Q01DX001 (ip), vehicle: other) 100 % of control.
Take `COC(=O)C(C)NP(=O)(N1CC1)N1CC1` (stereo unspecified): the T/C by setting is: (dose: 1.87 mg/kg/injection, schedule: Q01DX005 (ip), vehicle: saline) 119 % of control; under setting [1], 176 % of control; under setting [2], 257 % of control; under setting [3], 226 % of control.
Turning to `CCOC(=O)C(C#N)C(=N)C1CC(C)(C)OC1=O` (stereo unspecified), the T/C is, setting by setting: (dose: 60.0 mg/kg/injection, schedule: Q01DX005 (ip), vehicle: saline with Tween-80) 100 % of control; (dose: 120.0 mg/kg/injection, schedule: Q01DX005 (ip), vehicle: saline with Tween-80) 103 % of control; under setting [4], 94 % of control.
Take `CCCCCC1(O)OC(=O)C(C)=C1C` (stereo unspecified): the T/C is 100 % of control (dose: 12.5 mg/kg/injection, schedule: Q04DX003 (ip), vehicle: saline); 100 % of control (dose: 25.0 mg/kg/injection, schedule: Q04DX003 (ip), vehicle: saline); 122 % of control (dose: 50.0 mg/kg/injection, schedule: Q04DX003 (ip), vehicle: saline).
As to `NCCCC(N)(C(=O)O)C(F)F` (stereo unspecified), the T/C is, setting by setting: (dose: 50.0 mg/kg/injection, schedule: Q01DX005 (ip), vehicle: saline) 106 % of control; (dose: 50.0 mg/kg/injection, schedule: Q01DX009 (ip), vehicle: distilled water + alcohol) 112 % of control; (dose: 50.0 mg/kg/injection, schedule: Q01DX009 (ip), vehicle: saline) 87 % of control; (dose: 100.0 mg/kg/injection, schedule: Q01DX005 (ip), vehicle: saline) 103 % of control; (dose: 100.0 mg/kg/injection, schedule: Q01DX009 (ip), vehicle: distilled water + alcohol) 112 % of control; (dose: 100.0 mg/kg/injection, schedule: Q01DX009 (ip), vehicle: saline) 103 % of control. Further, the T/C (dose: 200.0 mg/kg/injection, schedule: Q01DX005 (ip), vehicle: saline) is 103 % of control; the T/C (dose: 200.0 mg/kg/injection, schedule: Q01DX009 (ip), vehicle: distilled water + alcohol) is 115 % of control; the T/C (dose: 200.0 mg/kg/injection, schedule: Q01DX009 (ip), vehicle: saline) is 110 % of control; the T/C (dose: 400.0 mg/kg/injection, schedule: Q01DX009 (ip), vehicle: distilled water + alcohol) was 119 % of control; the T/C (dose: 800.0 mg/kg/injection, schedule: Q01DX009 (ip), vehicle: distilled water + alcohol) was 111 % of control.
Turning to `C(#Cc1ccccc1)/C=C/C(=C\c1ccccc1)c1ccccc1`, the T/C was 101 % of control under setting [5], 102 % of control under setting [6], 101 % of control under setting [7] and 100 % of control under setting [8].
As to `O=C1c2cccc3c([N+](=O)[O-])ccc(c23)C(=O)N1NCCO`, the T/C reads like this: under setting [5], 108 % of control; under setting [6], 116 % of control; under setting [7], 111 % of control and 116 % of control; under setting [8], 114 % of control.
As for `Cc1nc2ccccc2c(=O)n1-c1ccc(-c2nnc(Sc3nnc(-c4ccc(-n5c(C)nc6ccccc6c5=O)cc4)n3-c3ccccc3)n2-c2ccccc2)cc1`, the T/C runs as follows: (dose: 50.0 mg/kg/injection, schedule: Q01DX005 (ip), vehicle: Klucel (hydroxypropylcellulose) (HPC)) 102 % of control; (dose: 100.0 mg/kg/injection, schedule: Q01DX005 (ip), vehicle: Klucel (hydroxypropylcellulose) (HPC)) 101 % of control; (dose: 200.0 mg/kg/injection, schedule: Q01DX005 (ip), vehicle: Klucel (hydroxypropylcellulose) (HPC)) 90 % of control.
As to `Clc1nn2ccnc2c2cccnc12`, the T/C is 100 % of control (dose: 12.5 mg/kg/injection, schedule: Q04DX003 (ip), vehicle: Klucel (hydroxypropylcellulose) (HPC)) and 103 % of control (dose: 25.0 mg/kg/injection, schedule: Q04DX003 (ip), vehicle: Klucel (hydroxypropylcellulose) (HPC)).
On to `CC1=CC2=C(C=O)C(=O)[C@](C)(O)[C@@H](O)C2=CO1`, for which the T/C by setting is: (dose: 12.5 mg/kg/injection, schedule: Q01DX009 (ip), vehicle: saline with Tween-80) 109 % of control; (dose: 25.0 mg/kg/injection, schedule: Q01DX009 (ip), vehicle: saline with Tween-80) 118 % of control.
With `COc1cc2c(c(OC)c1OC)-c1ccc(SC)c(=O)cc1[C@@H](NC1OC(CO)C(O)C(O)C1O)CC2` (stereo partly specified), the T/C is, setting by setting: (dose: 3.12 mg/kg/injection, schedule: Q01DX009 (ip), vehicle: saline) 107 % of control and 111 % of control; (dose: 3.13 mg/kg/injection, schedule: Q01DX009 (ip), vehicle: saline) 115 % of control; (dose: 6.25 mg/kg/injection, schedule: Q01DX009 (ip), vehicle: saline) 118 % of control [middle of 4 runs]; (dose: 12.5 mg/kg/injection, schedule: Q01DX009 (ip), vehicle: saline) 123 % of control; (dose: 25.0 mg/kg/injection, schedule: Q01DX009 (ip), vehicle: saline) 118 % of control and 122 % of control.
For `Clc1ccc2ccc3cccnc3c2n1`, the T/C under setting [1] is 102 % of control; the T/C under setting [3] was 97 % of control; the T/C (dose: 30.0 mg/kg/injection, schedule: Q01DX005 (ip), vehicle: saline) is 93 % of control; the T/C (dose: 60.0 mg/kg/injection, schedule: Q01DX005 (ip), vehicle: saline) was 102 % of control; the T/C (dose: 120.0 mg/kg/injection, schedule: Q01DX005 (ip), vehicle: saline) was 105 % of control.
In the case of `COC(=O)C1CC(C(=O)OC)c2nc3ccccc3nc21` (stereo unspecified), the T/C was 100 % of control (dose: 60.0 mg/kg/injection, schedule: Q01DX005 (ip), vehicle: Klucel (hydroxypropylcellulose) (HPC)) and 98 % of control (dose: 120.0 mg/kg/injection, schedule: Q01DX005 (ip), vehicle: Klucel (hydroxypropylcellulose) (HPC)).
Take `c1ccc(OCC2CO2)c(OCC2CO2)c1` (stereo unspecified): the T/C by setting is: (dose: 1.88 mg/kg/injection, schedule: Q01DX005 (ip), vehicle: saline with Tween-80) 100 % of control; (dose: 3.75 mg/kg/injection, schedule: Q01DX005 (ip), vehicle: saline with Tween-80) 100 % of control; (dose: 7.5 mg/kg/injection, schedule: Q01DX005 (ip), vehicle: saline with Tween-80) 99 % of control; under setting [2], 111 % of control and 114 % of control and 121 % of control; under setting [6], 104 % of control; under setting [7], 112 % of control. Moreover, under setting [4], the T/C is 156 % of control and 157 % of control and 201 % of control.
As for `CCC12C=CCN3CCC4(c5cc(C6c7[nH]c8ccccc8c7CCN7CCCCC67)c(OC)cc5N(C)C4C(O)(C(=O)OC)C1OC(C)=O)C32` (stereo unspecified), the T/C is 115 % of control (dose: 0.06 mg/kg/injection, schedule: Q01DX009 (ip), vehicle: Klucel (hydroxypropylcellulose) (HPC)); 122 % of control (dose: 0.13 mg/kg/injection, schedule: Q01DX009 (ip), vehicle: Klucel (hydroxypropylcellulose) (HPC)); 95 % of control (dose: 0.13 mg/kg/injection, schedule: Q04DX003 (ip), vehicle: water); 123 % of control (dose: 0.25 mg/kg/injection, schedule: Q01DX009 (ip), vehicle: Klucel (hydroxypropylcellulose) (HPC)); 112 % of control (dose: 0.25 mg/kg/injection, schedule: Q04DX003 (ip), vehicle: water); 113 % of control (dose: 0.5 mg/kg/injection, schedule: Q04DX003 (ip), vehicle: water). Besides, the T/C runs as follows: (dose: 0.67 mg/kg/injection, schedule: Q01DX009 (ip), vehicle: Klucel (hydroxypropylcellulose) (HPC)) 103 % of control; (dose: 1.0 mg/kg/injection, schedule: Q04DX003 (ip), vehicle: water) 103 % of control; (dose: 1.5 mg/kg/injection, schedule: Q01DX009 (ip), vehicle: Klucel (hydroxypropylcellulose) (HPC)) 105 % of control; (dose: 2.0 mg/kg/injection, schedule: Q04DX003 (ip), vehicle: water) 91 % of control.
In the case of `COc1ccc(C2=NN(c3ccccc3)C(=O)/C2=C(/SC)N2CC2)cc1`, the T/C (dose: 100.0 mg/kg/injection, schedule: Q04DX003 (ip), vehicle: Klucel (hydroxypropylcellulose) (HPC)) is 99 % of control; the T/C (dose: 200.0 mg/kg/injection, schedule: Q04DX003 (ip), vehicle: Klucel (hydroxypropylcellulose) (HPC)) was 91 % of control; the T/C (dose: 400.0 mg/kg/injection, schedule: Q04DX003 (ip), vehicle: Klucel (hydroxypropylcellulose) (HPC)) was 102 % of control.
